Test results: patent US20230038929A1, “Fused Tricyclic Heterocyclic Compounds and Uses Thereof” (Verge Analytics, Inc., priority 2019, published 2023)
Structures can show the parent of a compound that is named as a salt.

Biological target: T1, Full length human recombinant PIKFYVE (Homo sapiens, UniProt Q9Y2I7, L932S/Q1183K/Q995L/S1033A/S696N/T998S)
T1 construct: Full length human recombinant PIKFYVE; purchased Carna Biosciences (Kobe, Japan); host or cells: baculovirus expression system (insect cells)
T1 sequence (Q9Y2I7 whole entry S696N/L932S/Q995L/T998S/S1033A/Q1183K): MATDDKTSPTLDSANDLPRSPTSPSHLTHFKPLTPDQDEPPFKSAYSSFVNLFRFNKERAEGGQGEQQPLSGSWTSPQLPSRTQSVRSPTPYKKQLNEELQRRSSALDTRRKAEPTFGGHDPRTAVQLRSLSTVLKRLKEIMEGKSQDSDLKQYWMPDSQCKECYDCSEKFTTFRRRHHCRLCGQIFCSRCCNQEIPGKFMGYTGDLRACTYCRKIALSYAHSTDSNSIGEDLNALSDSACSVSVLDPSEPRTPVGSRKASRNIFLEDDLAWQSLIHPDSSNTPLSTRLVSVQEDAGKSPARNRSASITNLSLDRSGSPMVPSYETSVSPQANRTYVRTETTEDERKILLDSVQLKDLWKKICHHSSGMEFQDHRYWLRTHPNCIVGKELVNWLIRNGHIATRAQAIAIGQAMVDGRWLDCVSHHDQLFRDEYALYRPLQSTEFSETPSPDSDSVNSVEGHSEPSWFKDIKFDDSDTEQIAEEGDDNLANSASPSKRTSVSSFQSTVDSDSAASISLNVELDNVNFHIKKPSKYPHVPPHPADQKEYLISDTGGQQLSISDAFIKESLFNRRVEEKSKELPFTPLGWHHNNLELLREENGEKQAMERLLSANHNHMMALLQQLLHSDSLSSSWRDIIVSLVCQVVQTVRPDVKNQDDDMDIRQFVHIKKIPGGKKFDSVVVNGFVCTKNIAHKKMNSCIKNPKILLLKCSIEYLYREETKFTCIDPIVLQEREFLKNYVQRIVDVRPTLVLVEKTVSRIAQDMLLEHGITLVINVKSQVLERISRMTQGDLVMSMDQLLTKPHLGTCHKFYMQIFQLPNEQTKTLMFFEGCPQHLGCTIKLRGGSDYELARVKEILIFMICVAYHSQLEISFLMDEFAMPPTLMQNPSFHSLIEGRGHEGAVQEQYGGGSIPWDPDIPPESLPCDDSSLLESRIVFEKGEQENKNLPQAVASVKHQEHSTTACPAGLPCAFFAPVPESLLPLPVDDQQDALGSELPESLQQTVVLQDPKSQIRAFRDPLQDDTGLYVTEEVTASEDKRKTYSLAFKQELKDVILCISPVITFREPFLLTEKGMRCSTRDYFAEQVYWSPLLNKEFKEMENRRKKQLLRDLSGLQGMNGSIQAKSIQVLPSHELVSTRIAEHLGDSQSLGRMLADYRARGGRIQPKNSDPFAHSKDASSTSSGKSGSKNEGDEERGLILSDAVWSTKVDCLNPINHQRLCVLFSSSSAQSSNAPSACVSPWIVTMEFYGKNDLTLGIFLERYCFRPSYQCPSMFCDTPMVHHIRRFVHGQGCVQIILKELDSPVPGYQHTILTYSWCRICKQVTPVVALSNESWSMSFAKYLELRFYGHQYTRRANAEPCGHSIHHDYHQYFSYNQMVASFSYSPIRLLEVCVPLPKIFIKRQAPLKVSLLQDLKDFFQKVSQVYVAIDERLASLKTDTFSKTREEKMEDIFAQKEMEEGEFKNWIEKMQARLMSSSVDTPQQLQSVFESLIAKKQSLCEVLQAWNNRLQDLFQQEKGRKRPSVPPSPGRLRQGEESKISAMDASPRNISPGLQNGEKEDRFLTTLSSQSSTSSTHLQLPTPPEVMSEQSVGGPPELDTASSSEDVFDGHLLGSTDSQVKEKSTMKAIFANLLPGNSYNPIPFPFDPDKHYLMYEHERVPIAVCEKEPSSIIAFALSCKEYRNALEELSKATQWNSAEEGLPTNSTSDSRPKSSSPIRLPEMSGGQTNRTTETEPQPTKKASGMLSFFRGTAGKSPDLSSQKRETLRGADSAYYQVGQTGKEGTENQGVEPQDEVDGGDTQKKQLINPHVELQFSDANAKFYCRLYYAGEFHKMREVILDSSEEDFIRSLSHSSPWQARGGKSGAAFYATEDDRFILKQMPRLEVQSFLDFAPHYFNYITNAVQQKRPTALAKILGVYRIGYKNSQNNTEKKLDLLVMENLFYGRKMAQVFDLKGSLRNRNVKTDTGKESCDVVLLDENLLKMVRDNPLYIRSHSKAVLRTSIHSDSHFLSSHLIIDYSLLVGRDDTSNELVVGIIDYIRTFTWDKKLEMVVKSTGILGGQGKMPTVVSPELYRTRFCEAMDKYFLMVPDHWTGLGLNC
Assay: Inhibition of PIKfyve (microfluidic electrophoresis kinase assay)
Assay type: biochemical
Details: 2 nM enzyme, 1 μM PI3P, 3 h at room temperature, 12 concentrations; read-out: PIKfyve IC50
Protocol: Biological Example 1: Inhibition of PIKfyve
Full length human recombinant PIKFYVE expressed in baculovirus expression system as N-terminal GST-fusion protein (265 kDa) was obtained from Carna Biosciences (Kobe, Japan). The kinase substrate was prepared by mixing and sonicating fluorescently-labeled phosphatidylinositol 3-phosphate (PI3P) with phospho-L-serine (PS) at a 1:10 ratio in 50 mM HEPES buffer pH7.5.
The kinase reactions were assembled in 384-well plates (Greiner) in a total volume of […] as follows. Kinase protein was pre-diluted in an assay buffer comprising 25 mM HEPES, pH 7.5, 1 mM DTT, 2.5 mM MgCl2, and 2.5 mM MnCl2, and 0.005% Triton X-100, and dispensed into a 384-well plate (10 μL per well). Test compounds were serially pre-diluted in DMSO and added to the protein samples by acoustic dispensing (Labcyte Echo). The concentration of DMSO was equalized to 1% in all samples. All test compounds were tested at 12 concentrations. Apilimod was used as a reference compound and was tested in identical manner in each assay plate. Control samples (0%-inhibition, in the absence of inhibitor, DMSO only) and 100%-inhibition (in the absence of enzyme) were assembled in replicates of four and were used to calculate %-inhibition in the presence of compounds. The reactions were initiated by addition of 10 μL of 2× PI3P/PS substrate supplemented with ATP. The final concentration of enzyme was 2 nM, the final concentration of ATP was […], and the final concentration of PI3P/PS substrate was 1 μM (PI3P). The kinase reactions were allowed to proceed for 3 h at room temperature. Following incubation, the reactions were quenched by addition of […] of termination buffer (100 mM HEPES, pH 7.5, 0.01% Triton X-100, 20 mM EDTA). Terminated plates were analyzed on a microfluidic electrophoresis instrument (Caliper LabChip® 3000, Caliper Life Sciences/Perkin Elmer). The change in the relative fluorescence intensity of the PI(3)P substrate and PI(3,5)P product peaks was measured. The activity in each test sample was determined as the product to sum ratio (PSR): P/(S+P), where P is the peak height of the product, and S is the peak height of the substrate. Percent inhibition (Pinh) was determined using the following equation:
Pinh=(PSR0%inh−PSRcompound)/(PSR0%inh−P100%inh)*100
in which PSRcompound is the product/sum ratio in the presence of compound, PSR0%inh is the product/sum ratio in the absence of compound, and the PSR100%inh is the product/sum ratio in the absence of the enzyme. To determine the ICso of test compounds (50%-inhibition) the %-inh cdata (Pinh versus compound concentration) were fitted by a four-parameter sigmoid dose-response model using XLfit software (IDBS).

Row | IC50 | SMILES
1 | 1290 nM | c1cnc2oc3c(N4CCOCC4)nc(Nc4cc(C5CCCC5)n[nH]4)nc3c2c1 [Example 59, N-(3-cyclopentyl-1H-pyrazol-5-yl)-4-morpholinopyrido[3′,2′:4,5]furo[3,2-d]pyrimidin-2-amine hydrochloride]
2 | 573 nM | Cc1ccnc(-c2cc(Nc3nc(N4CCOCC4)c4oc5ncccc5c4n3)[nH]n2)c1 [Example 7, N-(3-(4-Methylpyridin-2-yl)-1H-pyrazol-5-yl)-4-morpholinopyrido[3′,2′:4,5]furo[3,2-d]pyrimidin-2-amine hydrochloride]
3 | 7850 nM | CCc1cc(Nc2nc(N3CCOCC3)c3oc4ncccc4c3n2)[nH]n1 [Example 62, N-(3-ethyl-1H-pyrazol-5-yl)-4-morpholinopyrido[3′,2′:4,5]furo[3,2-d]pyrimidin-2-amine hydrochloride]
4 | 303 nM | COc1cccc(-c2cc(Nc3nc(N4CCOCC4)c4oc5ncccc5c4n3)[nH]n2)c1 [Example 34, N-(3-(3-methoxyphenyl)-1H-pyrazol-5-yl)-4-morpholinopyrido[3′,2′:4,5]furo[3,2-d]pyrimidin-2-amine hydrochloride]
5 | 398 nM | Cc1ccc(-c2cc(Nc3nc(N4CCOCC4)c4oc5ncccc5c4n3)[nH]n2)cc1 [Example 50, 4-morpholino-N-(3-(p-tolyl)-1H-pyrazol-5-yl)pyrido[3′,2′:4,5]furo[3,2-d]pyrimidin-2-amine]
6 | 2090 nM | c1cnc2oc3c(N4CCOCC4)nc(Nc4cc(C5CC5)n[nH]4)nc3c2c1 [Example 53, N-(3-cyclopropyl-1H-pyrazol-5-yl)-4-morpholinopyrido[3′,2′:4,5]furo[3,2-d]pyrimidin-2-amine hydrochloride]
7 | 2180 nM | Fc1ccc(-c2cc(Nc3nc(N4CCOCC4)c4oc5ncccc5c4n3)[nH]n2)cc1F [Example 19, N-(3-(3,4-difluorophenyl)-1H-pyrazol-5-yl)-4-morpholinopyrido[3′,2′:4,5]furo[3,2-d]pyrimidin-2-amine hydrochloride]
8 | 129 nM | Fc1cccc(-c2cc(Nc3nc(N4CCOCC4)c4oc5ncccc5c4n3)[nH]n2)c1 [Example 16, N-(3-(3-fluorophenyl)-1H-pyrazol-5-yl)-4-morpholinopyrido[3′,2′:4,5]furo[3,2-d]pyrimidin-2-amine hydrochloride]
9 | 1850 nM | CC(C)c1cc(Nc2nc(N3CCOCC3)c3oc4ncccc4c3n2)[nH]n1 [Example 63, N-(3-isopropyl-1H-pyrazol-5-yl)-4-morpholinopyrido[3′,2′:4,5]furo[3,2-d]pyrimidin-2-amine hydrochloride]
10 | 261 nM | Cc1cccc(-c2cc(Nc3nc(N4CCOCC4)c4oc5ncccc5c4n3)[nH]n2)n1 [Example 33, N-(3-(6-methylpyridin-2-yl)-1H-pyrazol-5-yl)-4-morpholinopyrido[3′,2′:4,5]furo[3,2-d]pyrimidin-2-amine hydrochloride]
11 | 251 nM | c1ccc(-c2cc(Nc3nc(N4CCOCC4)c4oc5ncccc5c4n3)[nH]n2)nc1 [Example 6, 4-Morpholino-N-(3-(pyridin-2-yl)-1H-pyrazol-5-yl)pyrido[3′,2′:4,5]furo[3,2-d]pyrimidin-2-amine hydrochloride]
12 | 2600 nM | c1cnc2oc3c(N4CCOCC4)nc(Nc4cc(CC5CC5)n[nH]4)nc3c2c1 [Example 54, N-(3-(cyclopropylmethyl)-1H-pyrazol-5-yl)-4-morpholinopyrido[3′,2′:4,5]furo[3,2-d]pyrimidin-2-amine hydrochloride]
13 | > 10000 nM | c1cnc(Nc2nc(N3CCOCC3)c3oc4ncccc4c3n2)nc1 [Example 42, 4-morpholino-N-(pyrimidin-2-yl)pyrido[3′,2′:4,5]furo[3,2-d]pyrimidin-2-amine]
14 | 108 nM | Fc1ccccc1-c1cc(Nc2nc(N3CCOCC3)c3oc4ncccc4c3n2)[nH]n1 [Example 15, N-(3-(2-fluorophenyl)-1H-pyrazol-5-yl)-4-morpholinopyrido[3′,2′:4,5]furo[3,2-d]pyrimidin-2-amine hydrochloride]
15 | 831 nM | c1ccc(Cc2cc(Nc3nc(N4CCOCC4)c4oc5ncccc5c4n3)[nH]n2)cc1 [Example 58, N-(3-benzyl-1H-pyrazol-5-yl)-4-morpholinopyrido[3′,2′:4,5]furo[3,2-d]pyrimidin-2-amine hydrochloride]
16 | 129 nM | Clc1cccc(-c2cc(Nc3nc(N4CCOCC4)c4oc5ncccc5c4n3)[nH]n2)c1 [Example 17, N-(3-(3-chlorophenyl)-1H-pyrazol-5-yl)-4-morpholinopyrido[3′,2′:4,5]furo[3,2-d]pyrimidin-2-amine hydrochloride]

Second part, the molecule before the results:

Row | SMILES | IC50
17 | c1cnc2oc3c(N4CCOCC4)ncnc3c2c1 [Example 52, 4-Morpholinopyrido[3′,2′:4,5]furo[3,2-d]pyrimidine] | > 10000 nM
18 | CN(C)CCOc1ccc2c(n1)oc1c(N3CCOCC3)nc(Nc3cc(-c4ccccc4)n[nH]3)nc12 [Example 4, 7-(2-(Dimethylamino)ethoxy)-4-morpholino-N-(3-phenyl-1H-pyrazol-5-yl)pyrido[3′,2′:4,5]furo[3,2-d]pyrimidin-2-amine hydrochloride] | 68 nM
19 | c1ccc(-c2ccc(Nc3nc(N4CCOCC4)c4oc5ncccc5c4n3)cc2)cc1 [Example 44, N-([1,1′-biphenyl]-4-yl)-4-morpholinopyrido[3′,2′:4,5]furo[3,2-d]pyrimidin-2-amine] | 356 nM
20 | CN(C)CCCOc1ccc2c(n1)oc1c(N3CCOCC3)nc(Nc3cc(-c4ccccc4)n[nH]3)nc12 [Example 23, 7-(3-(dimethylamino)propoxy)-4-morpholino-N-(3-phenyl-1H-pyrazol-5-yl)pyrido[3′,2′:4,5]furo[3,2-d]pyrimidin-2-amine hydrochloride] | 20 nM
21 | c1ccc(-c2c[nH]c(Nc3nc(N4CCOCC4)c4oc5ncccc5c4n3)n2)cc1 [Example 20, 4-morpholino-N-(4-phenyl-1H-imidazol-2-yl)pyrido[3′,2′:4,5]furo[3,2-d]pyrimidin-2-amine hydrochloride] | 4750 nM
22 | FC(F)(F)Oc1cccc(-c2cc(Nc3nc(N4CCOCC4)c4oc5ncccc5c4n3)[nH]n2)c1 [Example 35, 4-morpholino-N-(3-(3-(trifluoromethoxy)phenyl)-1H-pyrazol-5-yl)pyrido[3′,2′:4,5]furo[3,2-d]pyrimidin-2-amine hydrochloride] | 1540 nM
23 | c1ccc(-c2ccccc2Nc2nc(N3CCOCC3)c3oc4ncccc4c3n2)cc1 [Example 46, N-([1,1′-biphenyl]-2-yl)-4-morpholinopyrido[3′,2′:4,5]furo[3,2-d]pyrimidin-2-amine] | 3870 nM
24 | COc1ccc2c(n1)oc1c(N3CCOCC3)nc(Nc3cc(-c4ccccc4)n[nH]3)nc12 [Example 30, 7-methoxy-4-morpholino-N-(3-phenyl-1H-pyrazol-5-yl)pyrido[3′,2′:4,5]furo[3,2-d]pyrimidin-2-amine hydrochloride] | 163 nM
25 | CN1CCN(CCCOc2ccc3c(n2)oc2c(N4CCOCC4)nc(Nc4cc(-c5ccccc5)n[nH]4)nc23)CC1 [Example 29, 7-(3-(4-methylpiperazin-1-yl)propoxy)-4-morpholino-N-(3-phenyl-1H-pyrazol-5-yl)pyrido[3′,2′:4,5]furo[3,2-d]pyrimidin-2-amine hydrochloride] | 3 nM
26 | CN1CCN(CCOc2ccc3c(n2)oc2c(N4CCOCC4)nc(Nc4cc(-c5ccccc5)n[nH]4)nc23)CC1 [Example 28, 7-(2-(4-methylpiperazin-1-yl)ethoxy)-4-morpholino-N-(3-phenyl-1H-pyrazol-5-yl)pyrido[3′,2′:4,5]furo[3,2-d]pyrimidin-2-amine hydrochloride] | 46 nM
27 | c1ccc(-c2cc(Nc3nc(N4CCOCC4)c4oc5nc(OCCCN6CCCC6)ccc5c4n3)[nH]n2)cc1 [Example 27, 4-morpholino-N-(3-phenyl-1H-pyrazol-5-yl)-7-(3-(pyrrolidin-1-yl)propoxy)pyrido[3′,2′:4,5]furo[3,2-d]pyrimidin-2-amine hydrochloride] | 16 nM
28 | c1ccc(-c2cccc(Nc3nc(N4CCOCC4)c4oc5ncccc5c4n3)c2)cc1 [Example 45, N-([1,1′-biphenyl]-3-yl)-4-morpholinopyrido[3′,2′:4,5]furo[3,2-d]pyrimidin-2-amine] | 3980 nM
